Data as given in patent US20240352145A1, “EFFICACY OF ANTI-TROP-2-SN-38 ANTIBODY DRUG CONJUGATES FOR THERAPY OF TUMORS RELAPSED/REFRACTORY TO CHECKPOINT INHIBITORS” (Immunomedics, Inc., priority 2016, published 2024).

Legend:
[1] = test system: NCI-N87 human gastric tumor xenografts; experiment: Dose schedules and chronic dosing, NCI-N87 xenograft; format: in vivo, mouse
Text: In Vivo Therapeutic Studies—NCr female athymic nude (nu/nu) mice, 4-8 weeks old, were purchased from Taconic Farms (Germantown, NY). NCI-N87 gastric tumor xenografts were established by harvesting cells from tissue culture and making a final cell suspension 1:1 in matrigel (BD Bioscience; San Jose, CA), with each mouse receiving a total of 1×10^7 cells s.c. in the right flank. For BxPC-3. xenografts of 1 g were harvested, and a tumor suspension made in HBSS to a concentration of 40% tumor w/v. This suspension was mixed 1:1 with matrigel for a final tumor suspension of 20% w/v. […] For IHC, tumors were allowed to grow to approximately 0.5 cm^3 before the mice were euthanized and the tumors removed, formalin-fixed and paraffin-embedded. For therapy studies, mice were randomized into treatment groups and therapy begun when tumor volumes were approximately 0.25 cm^3.
Mice were euthanized and deemed to have succumbed to disease once tumors grew to greater than 1.0 cm^3 in size. […] Time to progression (TTP) was determined as time post-therapy initiation when the tumor grew more than 20% in size from its nadir.
A similar dose schedule experiment was performed in mice bearing NCI-N87 human gastric tumor xenografts (not shown). […] Likewise, in terms of overall survival, while all three dose schedules provided a significant survival benefit when compared to untreated control (P<0.0001), there were no differences between any of these three different schedules.
In all, four treatment cycles were administered to the animals.

MDA-MB-468 = experiment: Cytotoxicity (MTS), Example 7, MDA-MB-468; format: cell-based, human; conditions: MDA-MB-468, 96 h
Experimental: One day prior to adding the ADC, cells were harvested from tissue culture and plated into 96-well plates at 2000 cells per well. […] Plates were incubated at 37° C. for 96 h. […] Growth inhibition was measured as a percent of growth relative to untreated cells using Microsoft Excel and Prism software (non-linear regression to generate sigmoidal dose response curves which yield IC50-values).

[2] = mouse, in vivo
Experimental: One group was injected intravenously with 20 μCi (250-μg protein) of ^111In-sacituzumab govitecan, whereas another group received 20 μCi (250-μg protein) of ^111In-hRS7 IgG. At various timepoints mice (5 per timepoint) were anesthetized, bled via intracardiac puncture, and then euthanized. Tumors and various tissues were removed, weighed, and counted by γ scintillation to determine the percentage injected dose per gram tissue (% ID/g). […] Pharmacokinetic analysis on blood clearance was performed using WinNonLin software (Parsight Corp.).

TNBC = experiment: Phase I/II, TNBC cohort; format: in vivo, human
Text: Previous treatments included cyclophosphamide, doxorubicin, carboplatin, gemcitabine, capecitabine, eribulin, cisplatinum, anastrozole, vinorelbine, bevacizumab and tamoxifen.

BxPC-3 = experiment: dsDNA breaks, γH2AX induction in BxPC-3; format: cell-based, human; conditions: for Mean Fluorescence Intensity, γH2AX: untreated 2516 ± 191
Experimental: Assessment of Double-Stranded DNA Breaks In Vitro—For drug activity testing, BxPC-3 cells were seeded in 6-well plates at 5×10^5 cells/well and held at 37° C. overnight. […] The following morning, cells were trypsinized briefly, spun down, stained with Fixable Viability Stain 450 (BD Biosciences, San Jose, CA), washed with 1% BSA-PBS, and then fixed in 4% formalin for 15 min, washed again and permeabilized in 0.15% Triton-X100 in PBS for another 15 min. After washing twice with 1% BSA-PBS, cells were incubated with mouse anti-γH2AX-AF488 (EMD Millipore Corporation, Temecula, CA) for 45 min at 4° C. The signal intensity of γH2AX was measured by flow cytometry using a BD FACSCanto (BD Biosciences, San Jose, CA).

[3] = test system: BXPC3 model of human pancreatic cancer; conditions: mouse, in vivo, sc
COLO 205 = experiment: In vitro cytotoxicity, COLO 205
Text: (§1) Cell lines, antibodies, and chemotherapeutics—All human cancer cell lines used in this study were purchased from the American Type Culture Collection.

SK-MES-1 = experiment: In vitro cytotoxicity, SK-MES-1
Text: as §1

HCC1806 (Trop-2+) = experiment: dsDNA breaks, phospho-H2AX flow cytometry, HCC1806; format: cell-based, human; conditions: untreated baseline 168
Experimental: In vitro specificity testing by flow cytometry with rH2AX-stained cells—For drug activity testing, HCC1806 and HCC1395 TNBC cell lines cells were seeded in 6-well plates at 5×10^5 cells/well and held at 37° C. overnight. […] The signal intensity of rH2AX was measured by flow cytometry using a BD FACSCalibur (BD Biosciences, San Jose, CA).
The cells were then washed to remove unbound conjugate, and then incubated overnight at 37° C.

recombinant mouse Trop-2 = biological target: T1, recombinant mouse Trop-2 (Mus musculus, UniProt Q8BGV3); experiment: Trop-2 ELISA, murine; format: binding
T1 construct: purchased Sino Biological, Inc. 50922-M08H
T1 sequence (Q8BGV3 25-317): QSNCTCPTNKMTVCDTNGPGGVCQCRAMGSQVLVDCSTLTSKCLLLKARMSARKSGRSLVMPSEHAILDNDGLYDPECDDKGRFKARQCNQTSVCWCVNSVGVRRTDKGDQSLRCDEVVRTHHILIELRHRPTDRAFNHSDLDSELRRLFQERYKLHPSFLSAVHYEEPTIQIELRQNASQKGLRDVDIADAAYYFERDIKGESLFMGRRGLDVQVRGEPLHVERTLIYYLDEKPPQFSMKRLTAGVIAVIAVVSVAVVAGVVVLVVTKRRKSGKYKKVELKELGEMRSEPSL
Experimental: Trop-2 ELISA—Recombinant human Trop-2 with a His-tag (Sino Biological, Inc., Bejing, China; Cat #10428-H09H) and recombinant mouse Trop-2 with a His-Tag (Sino Biological, Inc., Cat #50922-M08H) were plated onto Ni-NTA Hissorb strips (Qiagen GmbH Cat #35023) at 1 μg for 1 h at room temperature. The plate was washed four times with PBS-Tween (0.05%) wash buffer. Serial dilutions of hRS7 were made in 1% BSA-PBS dilution buffer to a test range of 0.1 ng/mL to 10 μg/mL. The plates were then incubated for 2 h at room temperature before being washed four times followed by the addition of a peroxidase conjugated secondary antibody (goat anti-human, Fc fragment specific; Jackson Immunoresearch Cat #109-036-098). After a 45-min incubation, the plate was washed and a substrate solution (o-phenylenediamine dihydrochloride (OPD); Sigma, Cat #P828) added to all the wells. Plates were incubated in the dark for 15 min before the reaction was stopped with 4N sulfuric acid. The plates were read at 450 nm on Biotek ELX808 plate reader. Data were analyzed and graphed using Prism GraphPad Software (v4.03) (Advanced Graphics Software, Inc.; Encinitas, CA).

| Substance | TTP ([1]; 0.5 mg once a week for two weeks, one week off, four cycles) [days] | treatment-related toxicities ([1]; all dosing scheme evaluations, body weight) | increase in median survival vs control ADC ([1]; chronic dosing) [fold] | median survival ([1]; chronic dosing, four cycles) [days] | IC50 (MDA-MB-468) [nM] | amount in tumor vs hRS7 IgG [2] | confirmed complete responses (CR), patients (TNBC; 10 mg/kg) | partial responses (PR), patients (TNBC; 10 mg/kg) | stable disease (SD), patients (TNBC; 10 mg/kg) | objective response rate (TNBC; 15/52) [%] | favorable response rate (CR plus PR plus SD) (TNBC; in vivo) [%] | median time to progression (TNBC; in vivo) [months] | induction of γH2AX vs non-targeting control ADC (BxPC-3; BxPC-3, 30 min exposure) | Mean Fluorescence Intensity, γH2AX (BxPC-3; BxPC-3, 20 μg/ml for 30 min) | therapeutic efficacy [3] | IC50 (COLO 205) [nM] | IC50 (SK-MES-1) [nM] | Median fluorescence intensity, anti-rH2AX-AF488 (HCC1806 (Trop-2+)) | cross-reactivity (recombinant mouse Trop-2) | Percent Positive, γH2AX (BxPC-3; BxPC-3, 20 μg/ml for 30 min, untreated 18.8 ± 6.3) [%] |
| --- | --- | --- | --- | --- | --- | --- | --- | --- | --- | --- | --- | --- | --- | --- | --- | --- | --- | --- | --- | --- |
| IMMU-132 | 15.7 ± 11.1 | no treatment-related toxicities were observed | 3 | 63 | 3.9 | similar | 2 | 13 | 25 | 29 | 71 | 9.4 | greater than two-fold induction | 5349 ± 234 | better therapeutic efficacy than control treatments | 1.95 | 23.1 | 546 |  |  |
| hRS7 IgG |  |  |  |  |  |  |  |  |  |  |  |  |  | 2297 ± 18 |  |  |  |  | no cross-reactivity with the murine Trop-2 | 13.0 ± 0.6 |
